Literature values, collected in PMC5589927, “Visualization of ligand-induced dopamine D2S and D2L receptor internalization by TIRF microscopy” (Scientific Reports, 2017).

What was measured:
D2S receptors = details: stably transfected CHO cells, ref 46 (Itokawa et al.)
D2L receptors = details: stably transfected CHO cells, ref 46 (Itokawa et al.)

NCCc1ccc(O)c(O)c1 [dopamine]
surface expressed D2S receptors unavailable for [3H]sulpiride (internalization) (D2S receptors; after incubation with agonist): about 44% | half-life of decrease D2S (D2S receptors): 19 min | internalization of D2L (D2L receptors; after incubation with agonist): 22% | half-life of decrease D2L (D2L receptors): 33 min
